Here are results for five molecules from ChEMBL document CHEMBL5715260, “Selectivity Literature for EUbOPEN Chemogenomic Library” (2024).

For test [1], the target named is T1, Alpha trans-inducing protein (Human alphaherpesvirus 1) (UniProt A0A5J6DW59). The test can be described thus: Selectivity interaction (Reporter gene assay) EUB0000040b UL48. More on the design: recommended concentration 1 uM.
In test [2] the target is Nuclear receptor subfamily 2 group E member 1 (Homo sapiens) (UniProt Q9Y466).
Nuclear receptor subfamily 2 group E member 1 (Homo sapiens), sequence (Q9Y466 whole entry): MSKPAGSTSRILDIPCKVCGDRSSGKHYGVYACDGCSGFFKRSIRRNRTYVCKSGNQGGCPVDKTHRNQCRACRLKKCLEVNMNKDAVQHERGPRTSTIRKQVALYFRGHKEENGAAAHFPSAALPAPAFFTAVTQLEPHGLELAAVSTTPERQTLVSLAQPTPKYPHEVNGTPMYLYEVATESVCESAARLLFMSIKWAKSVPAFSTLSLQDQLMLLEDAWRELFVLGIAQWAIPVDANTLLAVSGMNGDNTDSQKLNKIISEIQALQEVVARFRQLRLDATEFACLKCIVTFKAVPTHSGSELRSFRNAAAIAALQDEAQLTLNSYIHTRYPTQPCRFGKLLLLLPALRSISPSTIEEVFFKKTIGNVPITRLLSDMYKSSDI
In test [3] the target is Nuclear receptor subfamily 4immunitygroup A member 1 (Homo sapiens) (UniProt P22736).
Nuclear receptor subfamily 4immunitygroup A member 1 (Homo sapiens), sequence (P22736 whole entry): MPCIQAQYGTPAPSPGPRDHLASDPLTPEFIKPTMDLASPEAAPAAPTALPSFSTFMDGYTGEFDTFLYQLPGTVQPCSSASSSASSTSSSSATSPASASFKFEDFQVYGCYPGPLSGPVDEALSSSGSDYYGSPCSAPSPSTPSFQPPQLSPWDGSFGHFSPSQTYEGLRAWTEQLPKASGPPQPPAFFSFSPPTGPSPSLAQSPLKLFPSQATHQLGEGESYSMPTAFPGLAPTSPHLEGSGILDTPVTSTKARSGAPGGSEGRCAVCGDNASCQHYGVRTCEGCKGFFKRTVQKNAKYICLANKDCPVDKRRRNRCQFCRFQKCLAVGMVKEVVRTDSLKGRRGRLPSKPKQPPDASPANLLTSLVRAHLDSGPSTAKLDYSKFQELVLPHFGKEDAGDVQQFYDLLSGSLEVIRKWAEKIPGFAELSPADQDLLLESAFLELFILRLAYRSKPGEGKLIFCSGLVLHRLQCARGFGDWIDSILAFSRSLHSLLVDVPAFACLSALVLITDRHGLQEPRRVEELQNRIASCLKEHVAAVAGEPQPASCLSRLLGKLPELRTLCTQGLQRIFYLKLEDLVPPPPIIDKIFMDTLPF
The target of test [4] is T2, Nuclear receptor subfamily 2 group C member 1 (Homo sapiens) (UniProt P13056).
T2 sequence (whole entry): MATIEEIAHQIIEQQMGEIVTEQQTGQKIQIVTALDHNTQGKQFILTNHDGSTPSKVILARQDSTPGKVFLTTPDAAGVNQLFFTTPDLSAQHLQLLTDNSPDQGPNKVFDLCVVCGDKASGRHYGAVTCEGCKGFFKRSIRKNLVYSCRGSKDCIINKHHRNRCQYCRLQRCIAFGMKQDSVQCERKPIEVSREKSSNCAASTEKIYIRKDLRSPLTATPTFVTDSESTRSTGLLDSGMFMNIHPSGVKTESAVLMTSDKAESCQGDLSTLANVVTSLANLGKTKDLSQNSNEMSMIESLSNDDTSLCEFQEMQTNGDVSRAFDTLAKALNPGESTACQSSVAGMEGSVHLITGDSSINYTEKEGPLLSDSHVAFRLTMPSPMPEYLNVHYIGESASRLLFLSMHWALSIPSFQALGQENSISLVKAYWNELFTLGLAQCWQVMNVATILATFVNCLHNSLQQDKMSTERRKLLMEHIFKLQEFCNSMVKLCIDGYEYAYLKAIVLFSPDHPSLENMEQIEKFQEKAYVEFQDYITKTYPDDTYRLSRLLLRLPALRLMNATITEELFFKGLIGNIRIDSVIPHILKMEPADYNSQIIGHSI
The test can be described thus: Selectivity interaction (Reporter gene assay) EUB0000185b NR2C1. Also on record: recommended concentration 1 uM. (In general: A reporter such as luciferase makes a cellular process visible.)

The target in test [5] is Peroxisome proliferator-activated receptor delta (Homo sapiens) (UniProt Q03181). The test is described as follows: Selectivity interaction (Reporter gene assay) EUB0000185b PPARD. More on the design: recommended concentration 1 uM. The settings on record: screened at recom. conc., Selectivity number of off-targets 1.0, Selectivity number of targets 19.0, Source Knowledge inhouse.
Peroxisome proliferator-activated receptor delta (Homo sapiens), sequence (Q03181 whole entry): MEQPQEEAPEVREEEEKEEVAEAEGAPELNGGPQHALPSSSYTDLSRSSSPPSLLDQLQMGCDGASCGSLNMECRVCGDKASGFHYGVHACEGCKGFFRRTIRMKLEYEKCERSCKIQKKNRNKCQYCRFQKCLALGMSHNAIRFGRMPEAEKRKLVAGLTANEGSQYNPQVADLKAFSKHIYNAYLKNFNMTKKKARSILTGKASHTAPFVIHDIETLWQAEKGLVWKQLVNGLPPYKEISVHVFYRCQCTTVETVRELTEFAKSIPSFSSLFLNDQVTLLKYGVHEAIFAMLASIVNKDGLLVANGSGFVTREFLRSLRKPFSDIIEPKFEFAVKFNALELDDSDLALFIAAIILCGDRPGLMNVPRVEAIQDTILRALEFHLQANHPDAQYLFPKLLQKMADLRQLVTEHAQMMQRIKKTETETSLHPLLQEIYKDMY

Test [6] has as its target Nuclear receptor subfamily 4immunitygroup A member 1 (Homo sapiens) (UniProt P22736). The test can be described thus: Selectivity interaction (Reporter gene assay) EUB0000185b NR4A1. Also on record: recommended concentration 1 uM.
Test [7] addresses T3, Hepatocyte nuclear factor 4-alpha (Homo sapiens) (UniProt P41235).
T3 sequence (whole entry): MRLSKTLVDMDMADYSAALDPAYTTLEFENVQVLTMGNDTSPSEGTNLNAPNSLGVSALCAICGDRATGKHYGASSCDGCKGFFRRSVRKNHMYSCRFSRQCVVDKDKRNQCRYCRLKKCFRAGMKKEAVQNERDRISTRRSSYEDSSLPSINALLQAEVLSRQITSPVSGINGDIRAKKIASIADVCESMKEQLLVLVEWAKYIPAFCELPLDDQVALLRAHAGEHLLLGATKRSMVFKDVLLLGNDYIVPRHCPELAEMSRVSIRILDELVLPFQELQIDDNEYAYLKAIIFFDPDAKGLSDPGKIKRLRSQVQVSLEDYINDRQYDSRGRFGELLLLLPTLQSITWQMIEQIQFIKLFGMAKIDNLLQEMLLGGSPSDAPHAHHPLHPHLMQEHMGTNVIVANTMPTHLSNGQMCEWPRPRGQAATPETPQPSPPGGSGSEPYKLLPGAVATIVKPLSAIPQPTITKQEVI
The test is described as follows: Selectivity interaction (Reporter gene assay) EUB0000185b HNF4A. More on the design: recommended concentration 1 uM.

In test [8] the target is T4, Retinoic acid receptor RXR-alpha (Homo sapiens) (UniProt P19793).
T4 sequence (whole entry): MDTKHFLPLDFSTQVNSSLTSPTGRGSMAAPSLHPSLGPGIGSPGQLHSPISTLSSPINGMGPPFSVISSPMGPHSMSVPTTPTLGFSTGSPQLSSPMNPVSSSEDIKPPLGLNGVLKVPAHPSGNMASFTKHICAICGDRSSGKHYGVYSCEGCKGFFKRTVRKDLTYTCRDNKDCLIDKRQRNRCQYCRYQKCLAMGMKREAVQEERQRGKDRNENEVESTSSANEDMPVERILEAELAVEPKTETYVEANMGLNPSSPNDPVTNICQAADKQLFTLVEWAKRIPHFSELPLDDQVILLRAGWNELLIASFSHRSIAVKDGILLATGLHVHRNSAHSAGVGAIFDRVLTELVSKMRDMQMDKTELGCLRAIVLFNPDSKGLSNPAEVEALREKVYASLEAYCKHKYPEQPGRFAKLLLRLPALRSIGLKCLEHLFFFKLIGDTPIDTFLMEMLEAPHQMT
The test can be described thus: Selectivity interaction (Reporter gene assay) EUB0000185b RXRA. Also on record: recommended concentration 1 uM. Conditions: reference bexarotene 1 uM, Selectivity number of off-targets 0.0, Selectivity number of targets 1.0, Source Knowledge inhouse.

Test [9] addresses Steroidogenic factor 1 (Homo sapiens) (UniProt Q13285). The test is described as follows: Selectivity interaction (Reporter gene assay) EUB0000185b NR5A1. Also on record: recommended concentration 1 uM.
Test [10] deals with Nuclear receptor subfamily 2 group E member 1 (Homo sapiens) (UniProt Q9Y466). The test is described as follows: Selectivity interaction (Reporter gene assay) EUB0000185b NR2E1. More on the design: recommended concentration 1 uM.
Test [11] concerns the target T1, Alpha trans-inducing protein (Human alphaherpesvirus 1). The test is described as follows: Selectivity interaction (Reporter gene assay) EUB0000185b UL48. Also on record: recommended concentration 1 uM.
Test [12] deals with T3, Hepatocyte nuclear factor 4-alpha (Homo sapiens). The test can be described thus: Selectivity interaction (Reporter gene assay) EUB0000183b HNF4A. More on the design: recommended concentration 3 uM.
The target in test [13] is T1, Alpha trans-inducing protein (Human alphaherpesvirus 1). The test can be described thus: Selectivity interaction (Reporter gene assay) EUB0000183b UL48. More on the design: recommended concentration 3 uM.
In test [14] the target is Steroidogenic factor 1 (Homo sapiens) (UniProt Q13285). The test can be described thus: Selectivity interaction (Reporter gene assay) EUB0000183b NR5A1. More on the design: recommended concentration 3 uM.
Steroidogenic factor 1 (Homo sapiens), sequence (Q13285 whole entry): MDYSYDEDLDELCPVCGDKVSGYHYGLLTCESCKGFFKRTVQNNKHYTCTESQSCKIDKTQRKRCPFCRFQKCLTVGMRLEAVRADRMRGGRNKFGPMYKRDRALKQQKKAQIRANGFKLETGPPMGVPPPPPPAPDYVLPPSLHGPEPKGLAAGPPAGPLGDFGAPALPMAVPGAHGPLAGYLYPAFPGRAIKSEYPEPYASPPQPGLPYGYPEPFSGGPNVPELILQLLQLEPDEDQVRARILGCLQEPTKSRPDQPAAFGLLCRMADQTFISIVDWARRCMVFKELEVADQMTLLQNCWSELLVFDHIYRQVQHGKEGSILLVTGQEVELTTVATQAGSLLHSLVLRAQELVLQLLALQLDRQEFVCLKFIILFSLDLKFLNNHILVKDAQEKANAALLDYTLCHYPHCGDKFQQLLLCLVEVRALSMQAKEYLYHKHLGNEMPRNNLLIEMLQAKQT
In test [15] the target is Nuclear receptor subfamily 2 group E member 1 (Homo sapiens) (UniProt Q9Y466). The test can be described thus: Selectivity interaction (Reporter gene assay) EUB0000183b NR2E1. More on the design: recommended concentration 3 uM.
Test [16] deals with T4, Retinoic acid receptor RXR-alpha (Homo sapiens). The test is described as follows: Selectivity interaction (Reporter gene assay) EUB0000183b RXRA. More on the design: recommended concentration 3 uM.
For test [17], the target named is Nuclear receptor subfamily 4immunitygroup A member 1 (Homo sapiens) (UniProt P22736). The test can be described thus: Selectivity interaction (Reporter gene assay) EUB0000183b NR4A1. More on the design: recommended concentration 3 uM.
Test [18] deals with T2, Nuclear receptor subfamily 2 group C member 1 (Homo sapiens). The test can be described thus: Selectivity interaction (Reporter gene assay) EUB0000183b NR2C1. More on the design: recommended concentration 3 uM.
For test [19], the target named is Nuclear receptor subfamily 2 group E member 1 (Homo sapiens) (UniProt Q9Y466). The test is described as follows: Selectivity interaction (Reporter gene assay) EUB0000081c NR2E1. Also on record: recommended concentration 1 uM.
Test [20] addresses T3, Hepatocyte nuclear factor 4-alpha (Homo sapiens). The test is described as follows: Selectivity interaction (Reporter gene assay) EUB0000081c HNF4A. More on the design: recommended concentration 1 uM.
The target of test [21] is T4, Retinoic acid receptor RXR-alpha (Homo sapiens). The test is described as follows: Selectivity interaction (Reporter gene assay) EUB0000081c RXRA. Also on record: recommended concentration 1 uM.
Test [22] deals with Steroidogenic factor 1 (Homo sapiens) (UniProt Q13285). The test can be described thus: Selectivity interaction (Reporter gene assay) EUB0000081c NR5A1. Also on record: recommended concentration 1 uM.
In test [23] the target is T1, Alpha trans-inducing protein (Human alphaherpesvirus 1). The test is described as follows: Selectivity interaction (Reporter gene assay) EUB0000081c UL48. Also on record: recommended concentration 1 uM.
For test [24], the target named is Nuclear receptor subfamily 4immunitygroup A member 1 (Homo sapiens) (UniProt P22736). The test can be described thus: Selectivity interaction (Reporter gene assay) EUB0000081c NR4A1. More on the design: recommended concentration 1 uM.
The target in test [25] is T2, Nuclear receptor subfamily 2 group C member 1 (Homo sapiens). The test is described as follows: Selectivity interaction (Reporter gene assay) EUB0000081c NR2C1. More on the design: recommended concentration 1 uM.
Test [26] addresses Nuclear receptor subfamily 4immunitygroup A member 1 (Homo sapiens) (UniProt P22736). The test is described as follows: Selectivity interaction (Reporter gene assay) EUB0000190b NR4A1. More on the design: recommended concentration 1 uM.
In test [27] the target is Steroidogenic factor 1 (Homo sapiens) (UniProt Q13285). The test is described as follows: Selectivity interaction (Reporter gene assay) EUB0000190b NR5A1. More on the design: recommended concentration 1 uM.
In test [28] the target is T4, Retinoic acid receptor RXR-alpha (Homo sapiens). The test can be described thus: Selectivity interaction (Reporter gene assay) EUB0000190b RXRA. Also on record: recommended concentration 1 uM. Conditions: reference bexarotene 1 uM, Selectivity number of off-targets 0.0, Selectivity number of targets 1.0, Source Knowledge inhouse.
Test [29] has as its target T1, Alpha trans-inducing protein (Human alphaherpesvirus 1). The test is described as follows: Selectivity interaction (Reporter gene assay) EUB0000190b UL48. Also on record: recommended concentration 1 uM.
The target of test [30] is Nuclear receptor subfamily 2 group E member 1 (Homo sapiens) (UniProt Q9Y466). The test is described as follows: Selectivity interaction (Reporter gene assay) EUB0000190b NR2E1. Also on record: recommended concentration 1 uM.
In test [31] the target is T3, Hepatocyte nuclear factor 4-alpha (Homo sapiens). The test is described as follows: Selectivity interaction (Reporter gene assay) EUB0000190b HNF4A. Also on record: recommended concentration 1 uM.
In test [32] the target is T2, Nuclear receptor subfamily 2 group C member 1 (Homo sapiens). The test can be described thus: Selectivity interaction (Reporter gene assay) EUB0000190b NR2C1. More on the design: recommended concentration 1 uM.

T1 sequence (A0A5J6DW59 as listed by the source): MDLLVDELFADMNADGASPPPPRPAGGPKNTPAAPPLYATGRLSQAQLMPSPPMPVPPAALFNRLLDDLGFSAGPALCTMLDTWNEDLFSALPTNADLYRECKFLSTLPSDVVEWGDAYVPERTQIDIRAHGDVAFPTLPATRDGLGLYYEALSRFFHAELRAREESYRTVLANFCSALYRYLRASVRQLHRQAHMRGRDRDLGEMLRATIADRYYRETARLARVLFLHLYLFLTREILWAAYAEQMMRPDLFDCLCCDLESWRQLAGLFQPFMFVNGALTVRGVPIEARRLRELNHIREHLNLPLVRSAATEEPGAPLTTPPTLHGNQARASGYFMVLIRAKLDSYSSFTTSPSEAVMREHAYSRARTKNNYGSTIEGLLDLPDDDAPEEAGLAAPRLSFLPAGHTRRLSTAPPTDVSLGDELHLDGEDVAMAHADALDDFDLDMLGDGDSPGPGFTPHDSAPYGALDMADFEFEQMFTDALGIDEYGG

In the case of `O=S(=O)(c1ccccc1)N(CC(F)(F)F)c1ccc(C(O)(C(F)(F)F)C(F)(F)F)cc1`, the P-value in test [1] came out at 0.000575. The Remaining activity was determined as 0.742 in test [2] and 0.903 in [3].
In the case of `CC(C)(Sc1ccc(CCN(CCCCC2CCCCC2)C(=O)NC2CCCCC2)cc1)C(=O)O`, the values for the Fold activation in test [4], in test [5] and in [6] were 1.49, 19.1 and 1.03, respectively. Besides, the Remaining activity in test [7] amounted to 0.944; in test [9], 0.897; in [10], 0.915. This molecule also yielded a Relative activation in test [8] of 0.845%. In [11], this molecule had a P-value of 2.26e-05.
Turning to `Cc1cc(C)c(S(=O)(=O)N(Cc2ccc(-c3cccc(S(C)(=O)=O)c3)cc2)Cc2ccc(C(F)(F)F)o2)c(C)c1`, the Fold activation is 1.28 in test [12], 1.29 in test [14], 1.26 in [15] and 1.06 in [18]. In [13], this molecule yielded a P-value of 0.011. In [16], the Relative activation was found to be 0.984%. For the same molecule, the Remaining activity in test [17] was determined as 0.982.
On to `CC[C@H]1[C@@H](O)[C@@H]2[C@H](CC[C@]3(C)[C@@H]([C@H](C)CCC(=O)O)CC[C@@H]23)[C@@]2(C)CC[C@@H](O)C[C@@H]12`, for which the Fold activation in test [19] stood at 1.13; in test [20], 1.14; in [22] it was 1.04; in test [24], 1.23; in test [25], 1.19. This molecule also displayed a Relative activation in test [21] of 0.53%. Further, in test [23], the P-value came out at 0.000147.
Take `CN(CCOc1ccc(CC2SC(=O)NC2=O)cc1)c1ccccn1` (configuration not stated): in test [26], the Remaining activity was 0.964. Further, the Fold activation in [27] was determined as 1.08; in test [30], 1.05; in test [31], 1.09; in test [32], 1.17. In addition, the Relative activation in [28] is 1.04%. The molecule also registered a P-value in test [29] of 2.07e-12.
